# From PubChem BioAssay (NCI)
#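 Dose response: 5 concentrations. Exposure: 48 h. Format: 96-well plates. Endpoint: linear interpolation; highest concentration if not reached. GI50: concentration for 50% inhibition of growth. At the TGI there is no net growth.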
# Experiments:
# Assay in all cases: inhibition of tumour cell growth, NCI panel, 48 h
# TK-10 renal = test system: TK-10 renal
# NCI-H23 lung = test system: NCI-H23 lung
# HOP-62 NSCLC = test system: HOP-62 NSCLC
# DU-145 prostate = test system: DU-145 prostate
# KM12 colon = test system: KM12 colon
# IGROV1 ovarian = test system: IGROV1 ovarian
# MDA-N = test system: MDA-N
# NCI/ADR-RES ovarian = test system: NCI/ADR-RES ovarian
# SNB-19 CNS = test system: SNB-19 CNS
# SNB-75 CNS = test system: SNB-75 CNS
# HS 578T breast = test system: HS 578T breast
# T-47D breast = test system: T-47D breast
# RXF 393 renal = test system: RXF 393 renal
# SW-620 colon = test system: SW-620 colon
# NCI-H522 lung = test system: NCI-H522 lung
# SN12C renal = test system: SN12C renal
# HT29 colon = test system: HT29 colon
# SK-OV-3 ovarian = test system: SK-OV-3 ovarian
# K-562 leukemia = test system: K-562 leukemia
# A498 renal = test system: A498 renal
# MOLT-4 leukemia = test system: MOLT-4 leukemia
# OVCAR-3 ovarian = test system: OVCAR-3 ovarian
# SF-295 CNS = test system: SF-295 CNS
# HL-60(TB) leukemia = test system: HL-60(TB) leukemia
# MCF7 breast = test system: MCF7 breast
# CAKI-1 renal = test system: CAKI-1 renal
# CCRF-CEM leukemia = test system: CCRF-CEM leukemia
# MDA-MB-435 = test system: MDA-MB-435
smiles,measurement,setting,value
COc1cc(C(=O)N2CCN(C=O)C2=S)cc(OC)c1OC,GI50,TK-10 renal,17.1 µM
same,TGI,TK-10 renal,36.7 µM
same,GI50,NCI-H23 lung,25.9 µM
same,TGI,NCI-H23 lung,62 µM
same,GI50,HOP-62 NSCLC,20 µM
same,TGI,HOP-62 NSCLC,61.1 µM
same,GI50,DU-145 prostate,19.6 µM
same,TGI,DU-145 prostate,56.6 µM
same,GI50,KM12 colon,14.4 µM
same,TGI,KM12 colon,29.5 µM
same,GI50,IGROV1 ovarian,21.9 µM
same,TGI,IGROV1 ovarian,57.3 µM
same,GI50,MDA-N,17.9 µM
same,TGI,MDA-N,34.5 µM
same,GI50,NCI/ADR-RES ovarian,36.1 µM
same,TGI,NCI/ADR-RES ovarian,> 100 µM
same,GI50,SNB-19 CNS,28.5 µM
same,TGI,SNB-19 CNS,70.4 µM
same,GI50,SNB-75 CNS,10.9 µM
same,TGI,SNB-75 CNS,34.6 µM
same,GI50,HS 578T breast,27.6 µM
same,TGI,HS 578T breast,> 100 µM
same,GI50,T-47D breast,20.7 µM
same,TGI,T-47D breast,90.6 µM
same,GI50,RXF 393 renal,16.1 µM
same,TGI,RXF 393 renal,32.4 µM
same,GI50,SW-620 colon,26.8 µM
same,TGI,SW-620 colon,70 µM
same,GI50,NCI-H522 lung,5.8 µM
same,TGI,NCI-H522 lung,20.8 µM
same,GI50,SN12C renal,20.2 µM
same,TGI,SN12C renal,40.2 µM
same,GI50,HT29 colon,26.7 µM
same,TGI,HT29 colon,66.4 µM
same,GI50,SK-OV-3 ovarian,21.9 µM
same,TGI,SK-OV-3 ovarian,72.8 µM
same,GI50,K-562 leukemia,30.8 µM
same,TGI,K-562 leukemia,> 100 µM
same,GI50,A498 renal,20.5 µM
same,TGI,A498 renal,37.6 µM
same,GI50,MOLT-4 leukemia,29.4 µM
same,TGI,MOLT-4 leukemia,73.8 µM
same,GI50,OVCAR-3 ovarian,16.9 µM
same,TGI,OVCAR-3 ovarian,33.6 µM
same,GI50,SF-295 CNS,29.3 µM
same,TGI,SF-295 CNS,> 100 µM
same,GI50,HL-60(TB) leukemia,23.4 µM
same,TGI,HL-60(TB) leukemia,44.3 µM
same,GI50,MCF7 breast,5.49 µM
same,TGI,MCF7 breast,24.6 µM
same,GI50,CAKI-1 renal,13.6 µM
same,TGI,CAKI-1 renal,26.7 µM
same,GI50,CCRF-CEM leukemia,18.3 µM
same,TGI,CCRF-CEM leukemia,49 µM
same,GI50,MDA-MB-435,15.5 µM
same,TGI,MDA-MB-435,30.8 µM
